Assay results published in US8809364B2, “Polycyclic aryl substituted triazoles and polycyclic heteroaryl substituted triazoles useful as axl inhibitors” (priority 2007, dated 2014).

These compounds were tested against T1, Axl (Homo sapiens, UniProt P30530) (assay: Phospho-Akt In-Cell Western Assay (inhibition of Axl activity)). Conditions: Hela cells, Axl antibody cross-linking stimulation, phospho-Akt chemiluminescence normalized to cell number; compound of formula (Ib), Table 2.
T1 construct: endogenous in cells; host or cells: HeLa cells
T1 sequence (P30530 26-894): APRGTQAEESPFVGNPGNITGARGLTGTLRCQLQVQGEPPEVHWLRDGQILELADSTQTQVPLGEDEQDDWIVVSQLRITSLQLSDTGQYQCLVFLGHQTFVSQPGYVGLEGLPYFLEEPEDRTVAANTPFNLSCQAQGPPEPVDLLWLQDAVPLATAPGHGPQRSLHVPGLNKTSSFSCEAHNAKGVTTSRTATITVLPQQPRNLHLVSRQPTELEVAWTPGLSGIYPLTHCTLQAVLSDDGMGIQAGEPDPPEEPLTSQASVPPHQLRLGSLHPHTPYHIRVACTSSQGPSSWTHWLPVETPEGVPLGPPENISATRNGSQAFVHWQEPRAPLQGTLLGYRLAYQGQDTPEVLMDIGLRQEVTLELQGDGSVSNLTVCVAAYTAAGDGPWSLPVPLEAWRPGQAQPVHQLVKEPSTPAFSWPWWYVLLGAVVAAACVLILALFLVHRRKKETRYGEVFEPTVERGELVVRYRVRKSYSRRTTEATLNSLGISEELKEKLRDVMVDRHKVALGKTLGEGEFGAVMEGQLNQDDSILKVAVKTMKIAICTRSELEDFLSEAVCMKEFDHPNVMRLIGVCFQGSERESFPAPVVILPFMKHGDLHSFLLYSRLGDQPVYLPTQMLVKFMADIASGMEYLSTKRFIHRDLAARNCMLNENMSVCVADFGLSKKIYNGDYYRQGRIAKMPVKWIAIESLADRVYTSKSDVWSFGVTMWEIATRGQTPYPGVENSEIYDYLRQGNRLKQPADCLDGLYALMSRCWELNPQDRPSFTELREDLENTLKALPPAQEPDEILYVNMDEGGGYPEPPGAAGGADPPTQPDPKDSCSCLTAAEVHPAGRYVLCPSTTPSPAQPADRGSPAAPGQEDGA
Type: cell-based
Procedure: The compounds of the invention were tested in the following assay for their ability to inhibit Axl activity.
Phospho-Akt In-Cell Western Assay
• Cell culture plate: 96 well assay plate (Corning 3610), white, clear bottom, tissue-culture treated. • Cells: Hela cells. • Starvation medium: For Axl stimulation: 0.5% FCS (fetal calf serum) in DMEM, plus Axl/Fc (extracellular domain of AXL fused to immunoglobulin Fc region) (R&D, 154-AL) 500 ng/mL. • For EGF (epidermal growth factor) stimulation: 0.5% FCS in DMEM (Dulbecco's modified Eagles medium). • Poly-L-Lysine 0.01% solution (the working solution): 10 μg/ml, dilute In PBS (phosphate buffered saline). • Axl antibody cross-linking: • 1st: Mouse anti-Axl (R&D, MAB154). • 2nd: Biotin-SP-conjugated AffiniPure goat anti-mouse IgG (H+L) (Jackson ImmunoResearch #115-065-003). • Fixing buffer: 4% formaldehyde in PBS. • Wash buffer: 0.1% TritonX-100 in PBS. • Quenching buffer: 3% H2O2, 0.1% Azide in wash buffer, Azide and hydrogen peroxide (H2O2) are added fresh. • Blocking buffer: 5% BSA in TBST (tris buffered saline plus 0.1% Tween 20). • Primary antibody: Rabbit anti-human Phospho-Akt antibody (Cell Signaling 9271): 1×250 diluted in blocking buffer. • Secondary antibody: HRP (horse radish peroxidase)-conjugated Goat anti-Rabbit secondary, stock solution: Jackson ImmunoResearch (Goat anti-Rabbit HRP, #111-035-144) 1:1 diluted in glycerol, store at −20° C. The working solution: 1×2000 dilution of stock in blocking buffer. • Chemiluminescent working solution (Pierce, 37030): SuperSignal ELISA (enzyme linked immunosorbant assay) Pico Chemiluminescent substrate. • Crystal Violet solution: Stock: 2.5% Crystal violet in methanol, filtered and kept at ambient temperature. The working solution: dilute the stock 1:20 with PBS immediately before use. • 10% SDS: working solution: 5% SDS (sodium dodecylsulfate), diluted in PBS Methods: Day 1:
A 96 well TC (tissue culture treated) plate was coated with 10 μg/mL poly-L-Lysine at 37° C. for 30 min, washed twice with PBS, and air-dried for 5 minutes before cells were added. Hela cells were seeded at 10,000 cells/well and the cells were starved in 100 μL starvation medium containing Axl/Fc for 24 hrs.
The cells were pre-treated with test compounds by adding 100 μL of 2× test compound to the starvation medium on the cells. The cells were incubated at 37° C. for 1 hr before stimulation.
The cells were stimulated by Axl-antibody cross-linking as follows: A 5×1^St/2nd Axl antibody mixture was made (37.5 μg/mL 1st/100 μg/mL 2nd) in starvation medium and nutated at 4° C. with thorough mixing for 1-2 hours for clustering. The resulting mix was warmed to 37° C. 50 μL of 5×Axl 1st/2nd of antibody cluster was added to the cells and the cells were incubated at 37° C. for 5 min.
After 5 minutes stimulation, the plate was flicked to remove medium and the plate was tapped onto paper towels. Formaldehyde (4.0% in PBS, 100 μL) was added to fix the cells and the cells were incubated at ambient temperature for 20 min without shaking.
The cells were washed with a plate washer buffer to remove the formaldehyde solution. The plate was flicked to removed excess wash buffer and tapped onto paper towels. Quenching buffer (100 μL) was added to each well and the cells were incubated at ambient temperature for 20 minutes without shaking.
The cells were washed with a plate washer buffer to remove the quenching buffer. Blocking buffer (100 μL) was added and the cells were incubated at ambient temperature for at least an hour with gentle shaking.
The cells were washed with a plate washer buffer and diluted primary antibody (50 μL) was added to each well (blocking buffer was added to the negative control wells instead). The plates were incubated overnight at 4° C. with gentle shaking.
The wash buffer was removed, diluted secondary antibody (100 μL) was added, and the cells were incubated at ambient temperature for 1 hour with gentle shaking. […]

| IC50 [nM] | SMILES |
| --- | --- |
| 1000 to 10000 | Nc1nc(Nc2ccc3c(c2)C(=O)NCCCC3)n(-c2cc3c(nn2)-c2ccccc2CCC3)n1 [Compound 15, 1-(6,7-dihydro-5H-benzo[6,7]cyclohepta[1,2-c]pyridazin-3-yl)-N^5-(1(2H)-oxo-3,4,5,6-tetrahydrobenzo[c]azocin-9-yl)-1H-1,2,4-triazole-3,5-diamine] |

Same assay, conditions: Hela cells, Axl antibody cross-linking stimulation, phospho-Akt chemiluminescence normalized to cell number; compounds of formula (Ia), Table 1

| IC50 [nM] | SMILES |
| --- | --- |
| 1000 to 10000 | CON=C1CCCc2ncc(Nc3nc(N)n(-c4cc5c(nn4)-c4ccccc4CCC5)n3)cc2CC1 (racemic) [Compound 8, 1-(6,7-dihydro-5H-benzo[6,7]cyclohepta[1,2-c]pyridazin-3-yl)-N^3-(7-(methoxyimino)-5,6,7,8,9,10-hexahydrocycloocta[b]pyridin-3-yl)-1H-1,2,4-triazole-3,5-diamine] |
| 1000 to 10000 | Nc1nc(Nc2ccc3c(c2)CCCN(C2CCCC2)CC3)nn1-c1cc2c(nn1)-c1ccccc1CCC2 [Compound 2, 1-(6,7-dihydro-5H-benzo[6,7]cyclohepta[1,2-c]pyridazin-3-yl)-N^3-(3-cyclopentyl-1,2,3,4,5,6-hexahydrobenzo[d]azocin-8-yl)-1H-1,2,4-triazole-3,5-diamine] |
| 1000 to 10000 | Nc1nc(Nc2ccc3c(c2)CC(N2CCCC2)CCCC3)nn1-c1cc2c(nn1)-c1ccccc1CCC2 (centres unmarked) [Compound 5, 1-(6,7-dihydro-5H-benzo[6,7]cyclohepta[1,2-c]pyridazin-3-yl)-N^3-(6-pyrrolidin-1-yl-5,6,7,8,9,10-hexahydrobenzo[8]annulene-3-yl)-1H-1,2,4-triazole-3,5-diamine] |
| 1000 to 10000 | Nc1nc(Nc2cnc3c(c2)CCC(O)CCC3)nn1-c1cc2c(nn1)-c1ccccc1CCC2 (centres unmarked) [Compound 9, 1-(6,7-dihydro-5H-benzo[6,7]cyclohepta[1,2-c]pyridazin-3-yl)-N^3-(7-hydroxy-5,6,7,8,9,10-hexahydrocycloocta[b]pyridin-3-yl)-1H-1,2,4-triazole-3,5-diamine] |
| < 1000 | Nc1nc(Nc2ccc3c(c2)CCN(C2CCCC2)CCC3)nn1-c1cc2c(nn1)-c1ccccc1CCC2 [Compound 3, 1-(6,7-dihydro-5H-benzo[6,7]cyclohepta[1,2-c]pyridazin-3-yl)-N^3-(3-cyclopentyl-1,2,3,4,5,6-hexahydrobenzo[d]azocin-9-yl)-1H-1,2,4-triazole-3,5-diamine] |
| 1000 to 10000 | Nc1nc(Nc2ccc3c(c2)C(=O)NCCCC3)nn1-c1cc2c(nn1)-c1ccccc1CCC2 [Compound 11, 1-(6,7-dihydro-5H-benzo[6,7]cyclohepta[1,2-c]pyridazin-3-yl)-N^3-(1(2H)-oxo-3,4,5,6-tetrahydrobenzo[c]azocin-9-yl)-1H-1,2,4-triazole-3,5-diamine] |
| < 1000 | Nc1nc(Nc2ccc3c(c2)CCC(=O)NCC3)nn1-c1cc2c(nn1)-c1ccccc1CCC2 [Compound 1, 1-(6,7-dihydro-5H-benzo[6,7]cyclohepta[1,2-c]pyridazin-3-yl)-N^3-(4(1H)-oxo-2,3,5,6-tetrahydrobenzo[d]azocin-8-yl)-1H-1,2,4-triazole-3,5-diamine] |
| 1000 to 10000 | Nc1nc(Nc2ccc3c(c2)CCC2(CC3)OCCO2)nn1-c1ncnc2c1CCCCCC2 [Compound 14, 1-(5,6,7,8,9,10-hexahydrocycloocta[d]pyrimidin-4-yl)-N^3-(5,6,8,9-tetrahydrospiro[benzo[7]annulene-7,2′-[1,3]dioxolane]-3-yl)-1H-1,2,4-triazole-3,5-diamine] |
| < 1000 | Nc1nc(Nc2ccc3c(c2)CC2CCC(C3)C2N2CCCC2)nn1-c1cc2c(nn1)-c1ccccc1CCC2 (centres unmarked) [Compound 4, 1-(6,7-dihydro-5H-benzo[6,7]cyclohepta[1,2-c]pyridazin-3-yl)-N^3-(7-pyrrolidin-1-yl-6,8-ethano-6,7,8,9-tetrahydro-5H-benzo[7]annulene-3-yl)-1H-1,2,4-triazole-3,5-diamine] |
| < 1000 | Nc1nc(Nc2cnc3c(c2)CCC(N2CCCC2)CCC3)nn1-c1cc2c(nn1)-c1ccccc1CCC2 (centres unmarked) [Compound 7, 1-(6,7-dihydro-5H-benzo[6,7]cyclohepta[1,2-c]pyridazin-3-yl)-N^3-(7-(pyrrolidin-1-yl)-5,6,7,8,9,10-hexahydrocycloocta[b]pyridin-3-yl)-1H-1,2,4-triazole-3,5-diamine] |
| < 1000 | Nc1nc(Nc2cnc3c(c2)CCC(=O)CCC3)nn1-c1cc2c(nn1)-c1ccccc1CCC2 [Compound 6, 1-(6,7-dihydro-5H-benzo[6,7]cyclohepta[1,2-c]pyridazin-3-yl)-N^3-(7-oxo-5,6,8,9,10-pentahydrocycloocta[b]pyridin-3-yl)-1H-1,2,4-triazole-3,5-diamine] |
| 1000 to 10000 | Nc1nc(Nc2ccc3c(c2)CNCCCC3)nn1-c1cc2c(nn1)-c1ccccc1CCC2 [Compound 13, 1-(6,7-dihydro-5H-benzo[6,7]cyclohepta[1,2-c]pyridazin-3-yl)-N^3-(1,2,3,4,5,6-hexahydrobenzo[c]azocin-9-yl)-1H-1,2,4-triazole-3,5-diamine] |

| SMILES | IC50 [nM] |
| --- | --- |
| Nc1nc(Nc2cnc3c(c2)CCC(=O)CCC3)nn1-c1cc(-c2ccncc2)c2c(n1)C1CCN2CC1 [Compound 10, 1-(1,4-ethano-8-pyridin-4-yl-1,2,3,4-tetrahydro-1,5-naphthyridin-6-yl)-N^3-(7-oxo-5,6,7,8,9,10-hexahydrocycloocta[b]pyridin-3-yl)-1H-1,2,4-triazole-3,5-diamine] | < 1000 |
